{
  "source": "paper PMC8557866",
  "about": "“Novel Small Molecule Growth Inhibitor Affecting Bacterial Outer Membrane Reduces Extraintestinal Pathogenic Escherichia coli (ExPEC) Infection in Avian Model” (Microbiology Spectrum, 2021)",
  "key": {"[1]": {"tested_on": "APEC", "assay": "microbe, parasite or virus in culture", "type": "cell-based, Escherichia coli"}, "[2]": {"tested_on": "APEC O78", "assay": "Comparative efficacy of GI-7 and sulfadimethoxine, floor trial", "type": "in vivo, commercial broiler chickens", "set-up": "Cumulative lesion score / Mean lesion score in Liver / Mean lesion score in Heart / Mean lesion score in Lung / Mean lesion score in Air sacs: scale not given here", "procedure": "At day 13 (7 dpi), half of the chickens from each group, and at day 42 (slaughter age), 10 chickens from each group were necropsied and lesions and APEC loads were assessed as described above."}, "[3]": {"assay": "Pharmacokinetic study in plasma of chickens (LC-MS)", "type": "in vivo", "procedure": "Details of the methods are included in the supplemental material. page 3: previously(3). […] The mixtures were then incubated at […] for 30 min and proteins were removed by ultracentrifugation at 13,000xg for 25 min at 2 °C."}, "[4]": {"tested_on": "APEC O78", "assay": "Gene expression analysis by RT-qPCR in GI-7-treated APEC", "type": "cell-based, Escherichia coli", "settings": "4 h treatment, vs untreated APEC", "procedure": "We also quantitated the expression of other genes essential for maintaining OM integrity (bamA, mlaA, lolB, and pbgA) ([21]). […] An APEC O78 culture treated with 1% DMSO was used as a control. Total RNA was extracted using the RNeasy minikit (Qiagen), and 5 μg of purified RNA was used to synthesize cDNA using the RT^2 first strand kit (Qiagen). The RT-qPCR was performed using Maxima SYBR green/ROX qPCR master mix (Thermo Fisher) in a RealPlex^2 Mastercycler (Eppendorf) with a 55°C annealing temperature. The primers (Table S3) were designed using the PrimerQuest tool and obtained from Integrated DNA Technologies (IDT). The data were normalized to the housekeeping gene encoding glyceraldehyde-3-phosphate dehydrogenase (GAPDH), and relative fold changes were calculated using the cycle threshold (ΔΔCT) method ([79]). Two independent experiments were conducted."}, "[5]": {"tested_on": "LptE", "assay": "Membrane protein SDS-PAGE and LC-MS/MS (emPAI of LptE)", "type": "cell-based, Escherichia coli", "settings": "GI-7-treated APEC; untreated APEC 13.84", "procedure": "A GI-7-treated culture of APEC O78 was prepared as described above, and the fractions of cytoplasmic and total membrane proteins were prepared using ultracentrifugation as described previously ([80]). […] The gel was stained with Coomassie blue R-250, the bands of ∼21.4 kDa (expected size of LptE) were excised from both untreated and GI-7-treated lanes of the gel, and in-gel digestion was performed as previously described ([81]). LC-MS/MS of the digested samples was performed on the Thermo Scientific Orbitrap Fusion MS instrument equipped with an EASY-Spray source operated in positive ion mode (CCIC, MS&P Facility, OSU). The Thermo Scientific UltiMate 3000 RSLCnano system containing an Acclaim PepMap 100 (75 μm by 2 cm) trap column and Easy-Spray nano separation column (PepMap RSLC C18, […], 100 Å, 75 μm by 150 mm; Thermo Scientific) was used for injection and elution of samples. For the proteomics database search, the E. coli Uniprot protein database with trypsin/P (selected as the enzyme) was used with the fragment mass tolerance set to 0.5 Da. Mascot Daemon (Matrix Science version 2.6.0) and Scaffold Proteome software were used for the MS/MS data analysis. […] The exponentially modified protein abundance index (emPAI) ([82]) was also calculated to compare the LptE levels between untreated and GI-7-treated gel fragments."}, "[6]": {"tested_on": "LptE", "assay": "LptD/E immunoblot analysis", "type": "cell-based, Escherichia coli", "settings": "vs untreated APEC", "procedure": "For immunoblot analysis, total membrane proteins (25 μg) resolved by SDS-PAGE under nonreducing (in the absence of β-mercaptoethanol) conditions ([37]) as described above were electrotransferred onto an Immun-Blot polyvinylidene difluoride (PVDF) membrane (Bio-Rad) and probed for LptD or LptE using anti-LptD (1:20,000) and anti-LptE (1:30,000) polyclonal rabbit antibodies (GenScript) and goat anti-rabbit IgG horseradish peroxidase (HRP)-conjugated secondary antibody (Sigma-Aldrich). Anti-LptD and anti-LptE antibodies were generated at GenScript using keyhole limpet hemocyanin (KLH)-conjugated peptides as the antigens (LptD epitope, […], and LptE epitope, […]). The epitopes were selected using the OptimumAntigen design tool (GenScript). The transferred membrane was developed with Clarity Western ECL substrate (Bio-Rad) and visualized in a FluorChem Q imager (ProteinSimple)."}, "[7]": {"tested_on": "APEC", "assay": "LPS analysis in outer membrane of APEC", "type": "cell-based, Escherichia coli", "settings": "vs untreated APEC; total carbohydrate assay P < 0.0001", "procedure": "Extracted LPS (normalized based on the OD600 before extraction) was separated on a 4-to-20% gradient SDS-PAGE gel and stained with Coomassie blue R-250 to visualize the LPS levels ([83]). In addition, LPS was also quantitated using a total carbohydrate assay kit (Cell Biolabs, Inc., San Diego, CA) following the manufacturer’s protocol. Two independent experiments with six replicates in each experiment were performed."}, "[8]": {"tested_on": "APEC", "settings": "10^9 CFU with 2× MBC or 15 passages at 0.75× MIC; cited from earlier work"}, "[9]": {"settings": "comparative efficacy trial, vs PC"}, "[10]": {"settings": "comparative efficacy, GI-7 60 mg/liter, SDM 495.3 mg/liter, 7 dpi"}},
  "data": [
    {"smiles": "COc1ccc(CNCc2cccc(C(F)(F)F)c2)cc1OCC(O)CN1CCCC1", "note": "(centres unmarked) [GI-7]", "values": [
      {"measurement": "Resistance in vivo", "setting": "[1]; APEC isolated from chickens treated with GI-7", "value": "no in vivo resistance"},
      {"measurement": "MBC", "setting": "[1]; Escherichia coli", "value": 50, "unit": "µM"},
      {"measurement": "MIC", "setting": "[1]; Escherichia coli", "value": 25, "unit": "µM"},
      {"measurement": "Reduction of severity of lesions", "setting": "[2]; 60 mg/liter in drinking water, as given in the abstract", "value": 29.5, "unit": "%"},
      {"measurement": "Mortality reduction compared to PC group", "setting": "[2]; GI-7 60 mg/liter, SDM 495.3 mg/liter in drinking water, PC mortality 41.2%", "value": 14.7, "unit": "%"},
      {"measurement": "Mean APEC load, Heart", "setting": "[2]; comparative efficacy trial", "value": 6.1, "unit": "Log CFU/g tissues"},
      {"measurement": "Mean APEC load, Kidney", "setting": "[2]; comparative efficacy trial", "value": 6.1, "unit": "Log CFU/g tissues"},
      {"measurement": "Mean APEC load, Liver", "setting": "[2]; comparative efficacy trial", "value": 5.7, "unit": "Log CFU/g tissues"},
      {"measurement": "Mean APEC load, Lung", "setting": "[2]; comparative efficacy trial", "value": 6.1, "unit": "Log CFU/g tissues"},
      {"measurement": "log reduction in APEC load, Heart", "setting": "[2]; [9]", "value": 1.8, "unit": "Log CFU/g tissues"},
      {"measurement": "log reduction in APEC load, Kidney", "setting": "[2]; [9]", "value": 1.6, "unit": "Log CFU/g tissues"},
      {"measurement": "log reduction in APEC load, Liver", "setting": "[2]; [9]", "value": 1.8, "unit": "Log CFU/g tissues"},
      {"measurement": "log reduction in APEC load, Lung", "setting": "[2]; [9]", "value": 2.0, "unit": "Log CFU/g tissues"},
      {"measurement": "Cumulative lesion score", "setting": "[2]; comparative efficacy, 7 dpi", "value": 9.8},
      {"measurement": "Mean lesion score in Air sacs", "setting": "[2]; [10]", "value": 3.0},
      {"measurement": "Mean lesion score in Heart", "setting": "[2]; [10]", "value": 3.2},
      {"measurement": "Mean lesion score in Liver", "setting": "[2]; [10]", "value": 2.3},
      {"measurement": "Mean lesion score in Lung", "setting": "[2]; [10]", "value": 1.3},
      {"measurement": "% reduction in severity, Air sacs lesions", "setting": "[2]; comparative efficacy, vs PC", "value": 9.9, "unit": "%"},
      {"measurement": "% reduction in severity, Heart lesions", "setting": "[2]; comparative efficacy, vs PC", "value": 10.2, "unit": "%"},
      {"measurement": "% reduction in severity, Liver lesions", "setting": "[2]; comparative efficacy, vs PC", "value": 7.2, "unit": "%"},
      {"measurement": "% reduction in severity, Lung lesions", "setting": "[2]; comparative efficacy, vs PC", "value": 29.5, "unit": "%"},
      {"measurement": "Effect on body weight gain (BWG) and feed conversion ratio (FCR)", "setting": "[2]; floor trial", "value": "No significant effect"},
      {"measurement": "Overall BWG", "setting": "[2]; floor trial, day 42 minus day 1, NC 2,501.2", "value": "2,432.4 g"},
      {"measurement": "Overall FCR", "setting": "[2]; floor trial, NC 1.45", "value": 1.45},
      {"measurement": "Survival of chickens", "setting": "[2]; floor trial, P < 0.1", "value": "increased the survival"},
      {"measurement": "Cmax", "setting": "[3]; commercial broiler, plasma, po, mean ± standard deviation, read-out: Peak plasma concentration (Cmax)", "value": "0.434 ± 0.389", "unit": "µg/mL"},
      {"measurement": "Tmax", "setting": "[3]; commercial broiler, plasma, po, postadministration, read-out: Time to maximum concentration (Tmax)", "value": 8, "unit": "h"},
      {"measurement": "Half-life", "setting": "[3]; comparison in words", "value": "shorter half-life than SDM"},
      {"measurement": "Cumulative accumulation in plasma after repeated administration", "setting": "[3]; data not shown", "value": "no cumulative accumulation"},
      {"measurement": "Excretion", "setting": "[3]; plasma", "value": "≤ 24", "unit": "h"},
      {"measurement": "Absorption (time at which absorbed)", "setting": "[3]; plasma, drinking water delivery", "value": 0.5, "unit": "h"},
      {"measurement": "Downregulation of lptD gene expression", "setting": "[4]; ~50% growth inhibition", "value": 12.90, "unit": "fold"},
      {"measurement": "Downregulation of bamA gene expression", "setting": "[4]", "value": 7.72, "unit": "fold"},
      {"measurement": "Downregulation of lolB gene expression", "setting": "[4]", "value": 1.92, "unit": "fold"},
      {"measurement": "Downregulation of lptA gene expression", "setting": "[4]", "value": 5.13, "unit": "fold"},
      {"measurement": "Downregulation of lptC gene expression", "setting": "[4]", "value": 4.99, "unit": "fold"},
      {"measurement": "Downregulation of lptE gene expression", "setting": "[4]", "value": 5.39, "unit": "fold"},
      {"measurement": "Downregulation of mlaA gene expression", "setting": "[4]", "value": 9.94, "unit": "fold"},
      {"measurement": "Downregulation of pbgA gene expression", "setting": "[4]", "value": 5.75, "unit": "fold"},
      {"measurement": "emPAI of LptE", "setting": "[5]", "value": 8.46},
      {"measurement": "LptE level (immunoblot)", "setting": "[6]", "value": "decreased the LptE level"},
      {"measurement": "LPS level in OM of APEC", "setting": "[7]", "value": "lower level of LPS"},
      {"measurement": "Resistance in vitro", "setting": "[8]", "value": "no resistance"}
    ]}
  ]
}
